Results as given in the NIST ThermoML archive (doi:10.1016/j.fluid.2005.04.021).
Numbers after ± are expanded uncertainties.

Experiment: activity coefficient (dimensionless); of the first substance listed, at infinite dilution; xn = mol fraction of the nth substance listed
Settings: Liquid, x1 = 0

Structure (SMILES) | activity coefficient (308.15 K) | activity coefficient (318.15 K) | activity coefficient (328.15 K)
C=CCCCC [hex-1-ene] + CCCCCCCCCCCCCC[P+](CCCCCC)(CCCCCC)CCCCCC.FC(F)(F)C(F)(F)[P-](F)(F)(F)(C(F)(F)C(F)(F)F)C(F)(F)C(F)(F)F | 0.53 ± 0.06 | 0.53 ± 0.06 | 0.52 ± 0.06
CCCO [propan-1-ol] + CCCCCCCCCCCCCC[P+](CCCCCC)(CCCCCC)CCCCCC.FC(F)(F)C(F)(F)[P-](F)(F)(F)(C(F)(F)C(F)(F)F)C(F)(F)C(F)(F)F | 1.16 ± 0.09 | 1 ± 0.07 | 0.87 ± 0.06
CO [methanol] + CCCCCCCCCCCCCC[P+](CCCCCC)(CCCCCC)CCCCCC.FC(F)(F)C(F)(F)[P-](F)(F)(F)(C(F)(F)C(F)(F)F)C(F)(F)C(F)(F)F | 1.23 ± 0.09 | 1.14 ± 0.08 | 1.01 ± 0.07
C=CCCCCC [1-heptene] + CCCCCCCCCCCCCC[P+](CCCCCC)(CCCCCC)CCCCCC.FC(F)(F)C(F)(F)[P-](F)(F)(F)(C(F)(F)C(F)(F)F)C(F)(F)C(F)(F)F | 0.59 ± 0.06 | 0.58 ± 0.06 | 0.57 ± 0.06
c1ccccc1 [benzene] + CCCCCCCCCCCCCC[P+](CCCCCC)(CCCCCC)CCCCCC.FC(F)(F)C(F)(F)[P-](F)(F)(F)(C(F)(F)C(F)(F)F)C(F)(F)C(F)(F)F | 0.2 ± 0.06 | 0.19 ± 0.06 | 0.19 ± 0.06
C1CCCC1 [cyclopentane] + CCCCCCCCCCCCCC[P+](CCCCCC)(CCCCCC)CCCCCC.FC(F)(F)C(F)(F)[P-](F)(F)(F)(C(F)(F)C(F)(F)F)C(F)(F)C(F)(F)F | 0.42 ± 0.05 | 0.42 ± 0.05 | 0.41 ± 0.05
CCCCCCCC [octane] + CCCCCCCCCCCCCC[P+](CCCCCC)(CCCCCC)CCCCCC.FC(F)(F)C(F)(F)[P-](F)(F)(F)(C(F)(F)C(F)(F)F)C(F)(F)C(F)(F)F | 0.84 ± 0.06 | 0.8 ± 0.06 | 0.77 ± 0.06
CCO [ethanol] + CCCCCCCCCCCCCC[P+](CCCCCC)(CCCCCC)CCCCCC.FC(F)(F)C(F)(F)[P-](F)(F)(F)(C(F)(F)C(F)(F)F)C(F)(F)C(F)(F)F | 1.2 ± 0.09 | 1.07 ± 0.08 | 0.93 ± 0.07
CCCCCCC [heptane] + CCCCCCCCCCCCCC[P+](CCCCCC)(CCCCCC)CCCCCC.FC(F)(F)C(F)(F)[P-](F)(F)(F)(C(F)(F)C(F)(F)F)C(F)(F)C(F)(F)F | 0.74 ± 0.06 | 0.72 ± 0.06 | 0.7 ± 0.06
CCCCCC [hexane] + CCCCCCCCCCCCCC[P+](CCCCCC)(CCCCCC)CCCCCC.FC(F)(F)C(F)(F)[P-](F)(F)(F)(C(F)(F)C(F)(F)F)C(F)(F)C(F)(F)F | 0.66 ± 0.06 | 0.64 ± 0.06 | 0.62 ± 0.06
C=CCCCCCC [oct-1-ene] + CCCCCCCCCCCCCC[P+](CCCCCC)(CCCCCC)CCCCCC.FC(F)(F)C(F)(F)[P-](F)(F)(F)(C(F)(F)C(F)(F)F)C(F)(F)C(F)(F)F | 0.67 ± 0.06 | 0.65 ± 0.06 | 0.64 ± 0.06
CCCCC [pentane] + CCCCCCCCCCCCCC[P+](CCCCCC)(CCCCCC)CCCCCC.FC(F)(F)C(F)(F)[P-](F)(F)(F)(C(F)(F)C(F)(F)F)C(F)(F)C(F)(F)F | 0.61 ± 0.06 | 0.6 ± 0.06 | 0.59 ± 0.06
C#CCCCCC [1-heptyne] + CCCCCCCCCCCCCC[P+](CCCCCC)(CCCCCC)CCCCCC.FC(F)(F)C(F)(F)[P-](F)(F)(F)(C(F)(F)C(F)(F)F)C(F)(F)C(F)(F)F | 0.46 ± 0.05 | 0.46 ± 0.05 | 0.45 ± 0.05
C1CCCCC1 [cyclohexane] + CCCCCCCCCCCCCC[P+](CCCCCC)(CCCCCC)CCCCCC.FC(F)(F)C(F)(F)[P-](F)(F)(F)(C(F)(F)C(F)(F)F)C(F)(F)C(F)(F)F | 0.49 ± 0.06 | 0.48 ± 0.05 | 0.44 ± 0.05
C#CCCCC [1-hexyne] + CCCCCCCCCCCCCC[P+](CCCCCC)(CCCCCC)CCCCCC.FC(F)(F)C(F)(F)[P-](F)(F)(F)(C(F)(F)C(F)(F)F)C(F)(F)C(F)(F)F | 0.42 ± 0.05 | 0.42 ± 0.05 | 0.41 ± 0.05
C#CCCCCCC [1-octyne] + CCCCCCCCCCCCCC[P+](CCCCCC)(CCCCCC)CCCCCC.FC(F)(F)C(F)(F)[P-](F)(F)(F)(C(F)(F)C(F)(F)F)C(F)(F)C(F)(F)F | 0.57 ± 0.06 | 0.52 ± 0.06 | 0.51 ± 0.06
C1CCCCCC1 [cycloheptane] + CCCCCCCCCCCCCC[P+](CCCCCC)(CCCCCC)CCCCCC.FC(F)(F)C(F)(F)[P-](F)(F)(F)(C(F)(F)C(F)(F)F)C(F)(F)C(F)(F)F | 0.54 ± 0.06 | 0.52 ± 0.06 | 0.49 ± 0.06
